Assay results as given in PMC11427369 (Frontiers in Pharmacology, 2024).

Assays:
PA63 = target: T1, PA63 (Bacillus anthracis, UniProt P13423); type: biochemical
T1 construct: gene pagA

C2IIa = C2IIa (Clostridium botulinum, UniProt O86171); type: biochemical
Chain of C2IIa (O86171 182-721 limits assumed): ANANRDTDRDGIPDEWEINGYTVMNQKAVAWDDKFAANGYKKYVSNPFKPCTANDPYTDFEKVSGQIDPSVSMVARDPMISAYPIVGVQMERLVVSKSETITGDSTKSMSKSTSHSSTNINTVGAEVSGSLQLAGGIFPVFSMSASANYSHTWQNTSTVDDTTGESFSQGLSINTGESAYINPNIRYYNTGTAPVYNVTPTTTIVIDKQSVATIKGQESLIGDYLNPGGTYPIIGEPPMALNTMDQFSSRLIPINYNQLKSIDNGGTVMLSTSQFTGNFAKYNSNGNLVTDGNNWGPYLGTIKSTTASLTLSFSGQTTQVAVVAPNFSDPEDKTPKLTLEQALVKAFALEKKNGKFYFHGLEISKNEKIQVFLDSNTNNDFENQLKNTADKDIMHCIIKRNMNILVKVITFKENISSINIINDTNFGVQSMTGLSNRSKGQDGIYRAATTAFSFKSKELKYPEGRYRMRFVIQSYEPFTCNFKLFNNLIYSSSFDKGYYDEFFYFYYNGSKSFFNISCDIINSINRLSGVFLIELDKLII

T1 sequence (P13423 197-764 limits assumed): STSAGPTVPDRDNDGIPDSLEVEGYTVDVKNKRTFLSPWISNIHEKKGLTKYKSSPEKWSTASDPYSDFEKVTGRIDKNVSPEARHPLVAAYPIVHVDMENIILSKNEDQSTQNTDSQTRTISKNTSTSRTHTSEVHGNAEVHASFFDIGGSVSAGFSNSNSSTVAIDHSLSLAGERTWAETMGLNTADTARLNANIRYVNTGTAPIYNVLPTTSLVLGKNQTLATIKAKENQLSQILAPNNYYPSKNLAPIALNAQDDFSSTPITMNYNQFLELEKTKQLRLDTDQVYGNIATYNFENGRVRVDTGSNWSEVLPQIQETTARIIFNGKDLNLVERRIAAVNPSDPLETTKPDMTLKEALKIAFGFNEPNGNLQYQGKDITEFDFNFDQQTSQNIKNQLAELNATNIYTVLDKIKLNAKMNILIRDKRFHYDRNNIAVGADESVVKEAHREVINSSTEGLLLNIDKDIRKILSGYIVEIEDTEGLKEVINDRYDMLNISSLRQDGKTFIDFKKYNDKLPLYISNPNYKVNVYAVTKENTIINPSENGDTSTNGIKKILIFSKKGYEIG

CCN(CC)C(=S)SSC(=S)N(CC)CC [disulfiram]
pore conductance block, planar lipid bilayer (PA63): addition of DSF immediately blocked any current flow, leading to zero level of conductance | pore conductance block, planar lipid bilayer (C2IIa): addition of DSF led to an immediate block of any current flowing
